# Biological target: T1, bovine GRK5 (Bos taurus, UniProt P43249)
# T1 construct: when using full-length kinases as the receptor[37] instead of isolated kinase domains; made in house
# Experiment: Primary DSF inhibitor screen, GRK5
# Assay type: binding
# Conditions: 10 μM compound, 2 μM kinase, relative to DMSO control
# T1 sequence (P43249 whole entry, the tested form may be a part): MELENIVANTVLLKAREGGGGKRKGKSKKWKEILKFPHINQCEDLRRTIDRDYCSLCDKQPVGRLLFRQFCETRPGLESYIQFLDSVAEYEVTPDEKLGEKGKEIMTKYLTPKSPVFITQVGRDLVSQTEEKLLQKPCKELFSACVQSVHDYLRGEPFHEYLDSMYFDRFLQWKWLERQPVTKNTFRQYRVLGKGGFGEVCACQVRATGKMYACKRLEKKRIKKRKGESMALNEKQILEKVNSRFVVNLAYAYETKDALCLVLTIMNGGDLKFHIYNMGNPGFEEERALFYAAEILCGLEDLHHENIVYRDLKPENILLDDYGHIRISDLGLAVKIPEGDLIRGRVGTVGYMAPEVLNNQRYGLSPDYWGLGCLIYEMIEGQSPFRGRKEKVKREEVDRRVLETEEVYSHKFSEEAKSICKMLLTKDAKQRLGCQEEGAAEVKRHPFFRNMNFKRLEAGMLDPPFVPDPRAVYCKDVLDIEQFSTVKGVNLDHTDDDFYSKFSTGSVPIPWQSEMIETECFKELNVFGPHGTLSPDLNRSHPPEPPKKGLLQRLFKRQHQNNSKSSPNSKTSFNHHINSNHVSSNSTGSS
row,Structure (SMILES),"ΔTm, primary screen, GRK5"
1,"O=C1Nc2ccccc2C1=Cc1c(Cl)[nH]c2ccccc12 [3-(2-Chloro-3-indolylmethylene)-1,3-dihydroindol-2-one]",2.98 °C
2,"Nc1cc2ncnc(Nc3cccc(Br)c3)c2cc1N [4-[(3-Bromophenyl)amino]-6,7-diaminoquinazoline]",6.16 °C
3,"Nc1ncnc2c1c(I)cn2[C@@H]1O[C@H](CO)[C@@H](O)[C@H]1O [5-Iodotubercidin, 4-Amino-5-iodo-7-(b-D-ribofuranosyl)pyrrolo[2,3-d]pyrimidine]",2.22 °C
4,"NC1=NC(=O)C(=C2CCNC(=O)c3[nH]c(Br)cc32)N1 [10Z-Hymenialdisine, 4-(2-Amino-4-oxo-2-imidazolidin-5-ylidene)-2-bromo-4,5,6,7-tetrahydropyrrolo[2,3-c]azepin-8-one]",4.5 °C
5,"O=C1Nc2ccccc2/C1=C\c1cnc[nH]1 [(Z,E)-3-(Imidazol-4-ylmethylene)indolin-2-one]",4.8 °C
6,O=C1NC(=O)/C(=C/c2ccc(-c3nc4ccccc4s3)o2)S1 [BAS 09687195],2.87 °C
7,"CN(C)CCCn1cc(C2=C(c3c[nH]c4ccccc34)C(=O)NC2=O)c2ccccc21.Cl [BIM I, 2-[1-(3-Dimethylaminopropyl)-1H-indol-3-yl]-3-(1H-indol-3-yl)maleimide, HCl]",6.45 °C
8,"CC(C)n1cnc2c(Nc3cccc(Cl)c3)nc(NCCO)nc21 [Compound 52, 2-(2-Hydroxyethylamino)-6-(3-chloroanilino)-9-isopropylpurine]",5.53 °C

# The next lines start with the values.
row,"ΔTm, primary screen, GRK5",Structure (SMILES)
1,8.22 °C,"Brc1c(Br)c(Br)c2[nH]nnc2c1Br [4,5,6,7-Tetrabromobenzo-triazole]"
2,5.41 °C,Nc1nc(Nc2ccc(S(N)(=O)=O)cc2)nn1C(=O)c1c(F)cccc1F [Aurora/Cdk Inhibitor]
3,3.11 °C,"O=C1NC(=O)C(c2c[nH]c3ccccc23)=C1c1c[nH]c2ccccc12 [BIM 4, bisindolylmaleimide IV]"
4,6.19 °C,"Cl.Cn1cc(C2=C(c3c4n(c5ccccc35)CCC(CN)C4)C(=O)NC2=O)c2ccccc21 (stereo not drawn) [BIM 10, Bisindolylmaleimide X, HCl]"

# Same assay, conditions: 10 μM compound, 2 μM kinase, relative to DMSO control; read-out: ΔTm, primary screen, GRK5
row,Structure (SMILES),ΔTm at 10 µM
1,CN1CC[C@H](c2c(O)cc(O)c3c(=O)cc(-c4ccccc4Cl)oc23)[C@H](O)C1 [Flavopiridol],4.13 °C
2,CC1=C(C(=O)Nc2ccc3[nH]nc(C)c3c2)C(c2ccc(C(F)(F)F)cc2)CC(=O)N1 (stereo not drawn) [GSK466314A],3.54 °C
3,CCCN1CCC=C(c2ccc(Nc3nc(Nc4ccccc4C(N)=O)c4cc[nH]c4n3)c(C)c2)C1 [GSK994854A],4.92 °C
4,CCCN1CCCC(c2ccc(Nc3nc(Nc4cc(F)ccc4C(N)=O)c4cc[nH]c4n3)c(OC)c2)C1 (stereo not drawn) [GSK1173862A],4.75 °C
5,COc1cc(C)c(N(C)C(=O)CN(C)C)cc1Nc1nc(Nc2cccc(F)c2C(N)=O)c2cc[nH]c2n1 [GSK2219385A],3.58 °C
6,c1ccc(COc2ccc(Nc3ncnc4ccc(-c5ccco5)cc34)cc2)cc1 [GW284372X],3.6 °C
7,NS(=O)(=O)c1ccc(N/N=C2\C(=O)Nc3ccc(C(=O)NCCc4c[nH]cn4)cc32)cc1 [GW300660X],3.03 °C
8,Cc1cc(O)cc(C)c1/C=C/c1cncc(C(=O)OC(C)(C)C)c1 [GW439255X],2.66 °C
9,Cn1cc(C=C2C(=O)Nc3cccnc32)c2ccccc21 [GW441756X],2.82 °C
10,NS(=O)(=O)c1ccc(NC=C2C(=O)Nc3ccc4ncsc4c32)cc1 [GW589933X],4.8 °C
11,CS(=O)(=O)CCN(CC#N)Cc1ccc(-c2ccc3ncnc(Nc4ccc(OCc5cccc(F)c5)c(Cl)c4)c3c2)o1 [GW616030X],3.29 °C
12,O=C(Nc1ccc(Oc2ccc3nc(NC(=O)c4ccco4)[nH]c3c2)cc1)Nc1cc(C(F)(F)F)ccc1F [GW683134A],2.32 °C
13,CCc1nn2ncccc2c1-c1ccnc(NC2CC2)n1 [GW683768X],2.22 °C
14,COC(=O)Nc1nc2ccc(Oc3ccc(NC(=O)Nc4cccc(C(=O)O)c4)cc3)cc2[nH]1 [GW701427A],3.25 °C
15,O=C(Nc1ccc(Oc2ccc3nc(NC(=O)c4ccccc4)[nH]c3c2)cc1)Nc1cc(C(F)(F)F)ccc1F [GW709042A],3.88 °C

# Continued, values first:
row,ΔTm at 10 µM,Structure (SMILES)
1,2.9 °C,"O=c1cc(-c2ccc(O)cc2)oc2cc(O)cc(O)c12 [Apigenin, 4',5,7-Trihydroxyflavone]"
2,3.25 °C,O=C1Nc2ccccc2/C1=C1\CCc2cc(O)ccc21 [GR105659X]
3,2.97 °C,CCNC(=O)O[C@H]1CN[C@H](C#Cc2cc3ncnc(Nc4ccc(OCc5cccc(F)c5)c(Cl)c4)c3s2)C1 [GSK192082A]
4,2.93 °C,CN(C)C(=O)O[C@@H]1CN[C@@H](C#Cc2cc3ncnc(Nc4ccc(OCc5cccc(F)c5)c(Cl)c4)c3s2)C1 [GSK238063A]
5,2.06 °C,C[C@@H](Oc1cc(-n2cnc3ccc(OCC4CCN(C)CC4)cc32)sc1C(N)=O)c1ccccc1C(F)(F)F [GSK326090A]
6,2.11 °C,Fc1cccc(COc2ccc(Nc3ncnc4sc(-c5ccco5)cc34)cc2Cl)c1 [GSK969786A]
7,3.05 °C,COc1cc(N2CCN(C(C)C)CC2)ccc1Nc1nc(Nc2ccc(F)cc2C(N)=O)c2cc[nH]c2n1 [GSK1220512A]
8,2.4 °C,O=C1Nc2ccccc2/C1=C/Nc1ccc2[nH]c(=O)[nH]c2c1 [GW284408X]
9,3.72 °C,NS(=O)(=O)c1ccc(NN=C2C(=O)Nc3ccc(C(=O)NCCCn4ccnc4)cc32)cc1 [GW290597X]
10,3.89 °C,NS(=O)(=O)c1ccc(NN=C2C(=O)Nc3ccc(C(=O)NCc4ccncc4)cc32)cc1 [GW300657X]
11,2.08 °C,CC(C)=Cc1cccc2c1C(=NNc1ccc(S(N)(=O)=O)cc1)C(=O)N2 [GW396574X]
12,2.58 °C,CS(=O)(=O)CCNCc1coc(-c2ccc3ncnc(Nc4ccc(OCc5ccccc5)cc4)c3c2)c1 [GW566221A]
13,4.25 °C,CS(=O)(=O)CCNCc1ccc(-c2ccc3ncnc(Nc4ccc(OCc5ccccc5)c(Cl)c4)c3c2)o1 [GW574783B]
14,4.33 °C,CS(=O)(=O)CCNCc1ccc(-c2ccc3ncnc(Nc4ccc(OCc5ccccc5)c(Br)c4)c3c2)o1 [GW580496A]
15,3.59 °C,COC(=O)Nc1nc2ccc(Sc3ccc(NC(=O)Nc4cc(C(F)(F)F)ccc4F)cc3)cc2[nH]1 [GW607049C]
16,2.14 °C,CCS(=O)(=O)c1ccc(OC)c(Nc2ncc(-c3ccccc3Cl)o2)c1 [GW622055X]
17,3.27 °C,O=S(=O)(CCNCc1ccc(-c2ccc3ncnc(Nc4ccc(OCc5cccc(F)c5)c(Cl)c4)c3c2)o1)c1ccccc1 [GW633459A]
18,2.51 °C,COC(=O)Nc1nc2ccc(Oc3cccc(NC(=O)Nc4cc(C(F)(F)F)ccc4F)c3)cc2[nH]1 [GW659386A]
19,4.07 °C,COC(=O)Nc1nc2ccc(S(=O)(=O)c3ccc(NC(=O)Nc4cc(C(F)(F)F)ccc4F)cc3)cc2[nH]1 [GW680908A]
20,4.08 °C,COC(=O)Nc1nc2ccc(Oc3ccc(NC(=O)Nc4cccc(Br)c4)cc3)cc2[nH]1 [GW694234A]
21,3.97 °C,CN1CCN(CCCNc2nc3ccc(Oc4ccc(NC(=O)Nc5cc(C(F)(F)F)ccc5F)cc4)cc3[nH]2)CC1 [GW700494A]
22,3.36 °C,CC(=O)Nc1cccc(C#Cc2cncnc2Nc2ccc(OCc3cccc(F)c3)c(Cl)c2)c1 [GW703087X]
23,2.68 °C,NC(=O)c1cccc(Nc2nccc(Nc3cccc(F)c3)n2)c1 [GW759710A]

# Same assay, conditions: read-out: ΔTm, primary screen, GRK5, 10 μM compound, 2 μM kinase, relative to DMSO control
row,Structure (SMILES),ΔTm at 10 µM
1,c1cc(-c2cnn3nc(N4CCOCC4)ccc23)nc(NC2CC2)n1 [GW708336X],2.8 °C

# Reference: article PMC4301037, “Identification and Structure–Function Analysis of Subfamily Selective G Protein-Coupled Receptor Kinase Inhibitors” (ACS Chemical Biology, 2014)
